Test results: ChEMBL document CHEMBL1201862, “PubChem BioAssay data set” (2004)
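Step 1: Grow cells in 96-well plates. Step 2: Expose to compound for 48 hours at 5 concentrations. Step 3: Interpolate endpoints linearly; if unreached, use highest concentration. GI50 = concentration required for 50% inhibition of growth.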 Calls of active or inactive are those of the source. Cut-off read from the data, not from the text of the source: active = GI50 up to about 1.1 µM and inactive = higher.

Tests used:
Experiment in all cases: growth of human tumour cells (NCI), 48 h
HCT-15 = system: HCT-15
HCT-116 = system: HCT-116
SF-268 = system: SF-268
COLO 205 = system: COLO 205
M14 = system: M14
TK-10 = system: TK-10
PC-3 = system: PC-3
EKVX = system: EKVX
Hs-578T = system: Hs-578T
OVCAR-5 = system: OVCAR-5
SNB-19 = system: SNB-19
KM12 = system: KM12
HOP-92 = system: HOP-92
LOX IMVI = system: LOX IMVI
NCI-H460 = system: NCI-H460
MDA-MB-231 = system: MDA-MB-231
SK-MEL-28 = system: SK-MEL-28
DU-145 = system: DU-145
SF-295 = system: SF-295
SNB-75 = system: SNB-75

Compound	GI50 (HCT-15)	GI50 (HCT-116)	GI50 (SF-268)	GI50 (COLO 205)	GI50 (M14)	GI50 (TK-10)	GI50 (PC-3)	GI50 (EKVX)	GI50 (Hs-578T)	GI50 (OVCAR-5)	GI50 (SNB-19)	GI50 (KM12)	GI50 (HOP-92)	GI50 (LOX IMVI)	GI50 (NCI-H460)	GI50 (MDA-MB-231)	GI50 (SK-MEL-28)	GI50 (DU-145)	GI50 (SF-295)	GI50 (SNB-75)
CCOC(=O)/C(C(=S)Nc1ccccc1)=C(/N)N1CCCC1	> 100 µM	65.5 µM (inactive)	> 100 µM (inactive)	> 100 µM (inactive)	72.6 µM (inactive)	> 100 µM (inactive)	38.9 µM (inactive)	> 100 µM (inactive)	77.4 µM (inactive)	> 100 µM (inactive)	50.2 µM (inactive)	61.1 µM (inactive)	2.1 µM (inactive)	> 100 µM (inactive)	62.2 µM (inactive)	29.7 µM (inactive)	> 100 µM (inactive)	> 100 µM (inactive)	> 100 µM (inactive)	
N#Cc1c(N)nc(Sc2ccccc2N)c(C#N)c1-c1ccc(Cl)cc1	7.4 µM	6.81 µM (inactive)	6.24 µM (inactive)	28.5 µM (inactive)	10.5 µM (inactive)	13.7 µM (inactive)	3.71 µM (inactive)	4.29 µM (inactive)	7.26 µM (inactive)	27.1 µM (inactive)	14.3 µM (inactive)	12.6 µM (inactive)	15.8 µM (inactive)	4.45 µM (inactive)	9.46 µM (inactive)	9.77 µM (inactive)	33.6 µM (inactive)	12.7 µM (inactive)	6.65 µM (inactive)	
O=[N+]([O-])c1cccc(-c2ncc3c(n2)-c2ccccc2C3)c1	> 100 µM	> 100 µM (inactive)	51.6 µM (inactive)	> 100 µM (inactive)	> 100 µM (inactive)	47.1 µM (inactive)	> 100 µM (inactive)	94.4 µM (inactive)	32.9 µM (inactive)	> 100 µM (inactive)	30.3 µM (inactive)	> 100 µM (inactive)	> 100 µM (inactive)		> 100 µM (inactive)	20.5 µM (inactive)	> 100 µM (inactive)	> 100 µM (inactive)	54.3 µM (inactive)	23.1 µM (inactive)
C/C(=N\Nc1ccc([N+](=O)[O-])cc1[N+](=O)[O-])c1ccc2ccccc2n1	60.3 µM	57.4 µM (inactive)	61 µM (inactive)	> 100 µM (inactive)	> 100 µM (inactive)	39.6 µM (inactive)	> 100 µM (inactive)	> 100 µM (inactive)	25.3 µM (inactive)	> 100 µM (inactive)	20 µM (inactive)	> 100 µM (inactive)	> 100 µM (inactive)		33 µM (inactive)	49.3 µM (inactive)	> 100 µM (inactive)	> 100 µM (inactive)	52.6 µM (inactive)	81.1 µM (inactive)
CC(=O)O[C@H]1C(=O)[C@@]2(C)[C@H]([C@H](OC(=O)c3cccc(C(F)(F)F)c3)[C@]3(O)C[C@H](OC(=O)[C@H](O)[C@@H](NC(=O)c4ccccc4)c4ccccc4)C(C)=C1C3(C)C)[C@]1(OC(C)=O)CO[C@@H]1C[C@@H]2O	0.268 µM	< 0.0025 µM (active)	0.223 µM (active)	< 0.0025 µM (active)	0.00306 µM (active)	0.175 µM (active)	< 0.0025 µM (active)		< 0.0025 µM (active)	0.00475 µM (active)	0.0889 µM (active)	< 0.0025 µM (active)	0.52 µM (active)		0.00469 µM (active)	0.0361 µM (active)	1.89 µM (inactive)	0.00857 µM (active)	0.0387 µM (active)	0.00434 µM (active)
CC1C(OS(=O)(=O)c2ccc3nc(S)sc3c2)CC2C3(C)CCC2(C(C)C(=O)O)C(O)C13 (stereo not drawn)	12.5 µM	13.6 µM (inactive)	27.4 µM (inactive)	20.7 µM (inactive)	32.4 µM (inactive)	44.5 µM (inactive)	27.4 µM (inactive)	31.3 µM (inactive)	48.1 µM (inactive)	25.5 µM (inactive)	54.1 µM (inactive)	19.9 µM (inactive)	26.6 µM (inactive)		46.9 µM (inactive)	21.2 µM (inactive)	26.8 µM (inactive)	15.7 µM (inactive)	28 µM (inactive)	
Cc1ccc(C)n1-n1c(-c2ccccc2)n[nH]c1=O	> 100 µM	> 100 µM (inactive)	> 100 µM (inactive)	> 100 µM (inactive)	> 100 µM (inactive)	> 100 µM (inactive)	> 100 µM (inactive)	> 100 µM (inactive)	> 100 µM (inactive)	> 100 µM (inactive)	> 100 µM (inactive)	34.3 µM (inactive)		> 100 µM (inactive)	> 100 µM (inactive)	> 100 µM (inactive)	> 100 µM (inactive)	> 100 µM (inactive)	> 100 µM (inactive)	> 100 µM (inactive)
COCCOC(=O)c1c(C)[n+]([O-])c2cc(Cl)c(Cl)cc2[n+]1[O-]	8.71 µM		14.2 µM (inactive)	12.5 µM (inactive)	18.6 µM (inactive)	23.2 µM (inactive)	21.3 µM (inactive)	17.1 µM (inactive)	32.7 µM (inactive)	16.7 µM (inactive)	40.8 µM (inactive)	10.8 µM (inactive)	5.21 µM (inactive)	13.5 µM (inactive)	7.85 µM (inactive)	24.1 µM (inactive)	28.4 µM (inactive)	11.5 µM (inactive)	17.1 µM (inactive)	
CC(C)(C)C1CCC2c3c([nH]c4ccccc34)C3C(=O)N(c4cc(Cl)ccc4Cl)C(=O)C3C2C1 (stereo not drawn)	> 100 µM	> 100 µM (inactive)		> 100 µM (inactive)	> 100 µM (inactive)	> 100 µM (inactive)	> 100 µM (inactive)	> 100 µM (inactive)	45.5 µM (inactive)	> 100 µM (inactive)	> 100 µM (inactive)		65.8 µM (inactive)	38.8 µM (inactive)	> 100 µM (inactive)	25.9 µM (inactive)		> 100 µM (inactive)	> 100 µM (inactive)	
O=C(O)c1nc2cc(C(F)(F)F)ccc2[nH]c1=O	> 100 µM	> 100 µM (inactive)	> 100 µM (inactive)	> 100 µM (inactive)	> 100 µM (inactive)	> 100 µM (inactive)	> 100 µM (inactive)	> 100 µM (inactive)	> 100 µM (inactive)	> 100 µM (inactive)	> 100 µM (inactive)	> 100 µM (inactive)	> 100 µM (inactive)	> 100 µM (inactive)	> 100 µM (inactive)	> 100 µM (inactive)	> 100 µM (inactive)	> 100 µM (inactive)	> 100 µM (inactive)	
CN(Cc1cnc2nc(N)nc(N)c2n1)c1ccc(C(=O)NC(CCC(=O)O)C(=O)O)c2ccccc12 (stereo not drawn)	0.00186 µM	0.000647 µM (active)	0.00536 µM (active)	0.0391 µM (active)	0.00869 µM (active)	0.0458 µM (active)	0.000479 µM (active)	< 0.1 µM (active)	0.0982 µM (active)	0.0185 µM (active)	0.0612 µM (active)	0.00256 µM (active)		0.000508 µM (active)	0.0011 µM (active)	< 0.1 µM (active)	0.0805 µM (active)	0.00938 µM (active)	0.00604 µM (active)	0.0693 µM (active)
